According to US6946458B2, “N-thiolated beta-lactams: novel antibacterial agents for methicillin-resistant Staphylococcus aureus” (University of South Florida, priority 1999, dated 2005):

How the values were obtained:
Assay type in all cases: cell-based, Staphylococcus aureus
[1] = tested on: Staphylococcus strains including MRSA; experiment: antibacterial activity screening, results stated in words
Text: However, the N-alkylthio substituent is required, since reduction to the N—H analogue completely destroys the biological activity. […]
(§1) Of particular interest is the ability of these compounds to retain their effectiveness against penicillin-resistant strains of Staphylococcus aureus, a dangerous hospital-borne pathogen which is becoming difficult to treat with conventional antibiotic therapy. The lactams were screened for antibacterial activity by disk diffusion on agar plates, and the resulting zones of bacterial growth inhibition measured (see Table 3; each lactam is designated by Figure number).
With the lactam of FIG. 6A serving as a lead structure, other C4-unsaturated derivatives (FIGS. 6B-6E) and C4-saturated analogues (FIGS. 6F-6H), were examined all of which also have activity against Staphylococcus strains including MRSA.
(§2) Scheme I summarizes the synthesis of ester compounds 4. 4-Carboxy benzaldehyde (1) is coupled with the appropriate alcohol using DCC/DMAP, followed by reaction with p-anisidine, to give imines 2. Staudinger coupling of methoxyacetyl chloride with imine 2 gives N-aryl protected β-lactam 3. N-Dearylation of β-lactam 3 with ceric ammonium nitrate and methylthiolation with N-(methylthio)phthalimide affords N-methylthio β-lactams 4. These compounds are tested for antibacterial activity by the Kirby-Bauer method of disc diffusion on agar plates. [drawing 7]

[2] = tested on: MRSA USF652; experiment: Kirby-Bauer agar disk diffusion; parameters: Kirby-Bauer Disc Diffusion Test Results: unit not given here; conditions: for The Zone of Inhibition: Table 6; for Kirby-Bauer Disc Diffusion Test Results: Table 5, beta-lactamase producing strain
Procedure: (§3) In this study, a selection of N-methylthio-substituted β-lactams are examined for antimicrobial activity by the Kirby-Bauer disk diffusion method on agar plates. A variety of common Gram-positive and Gram-negative bacteria are tested, including clinical isolates of methicillin-resistant Staphylococcus aureus (MRSA).
(§4) Compound susceptibility measurements are obtained from agar disk diffusion experiments using 6-mm air-dried disks impregnated with 20 μg of the test compound. The values correspond to the average diameters in mm (triplicate experiments) for the zone of growth inhibition observed after 24 h. Staphylococcus aureus (ATCC 25923) and β-lactamase-producing strains of methicillin-resistant Staphylococcus aureus (labeled as MRSA USF652-659) are obtained from Lakeland Regional Medical Center, Lakeland, Fla. Staphylococcus epidermidis, Staphylococcus simulans, Staphylococcus simulans, and Microcossus luteus are clinical isolates from University of South Florida Medical Clinic. Nieserria gonnorhoeae (β-lactamase positive) is obtained from the Tampa Branch State Laboratory. PenG is penicillin G (potassium salt). Table 1 provides the zones of growth inhibition that are observed after 24 hours using the lactams of FIGS. 1A-1I (designated A-I, respectively).
as §1
(§5) Table 3: Growth inhibition zones obtained from agar disk diffusion experiments using 6-mm air-dried disks impregnated with 20 μg of the test compound. The values correspond to the average diameters in mm for the zone of growth inhibition observed after 24 hours. Staphylococcus aureus and β-lactamase-producing strains of methicillin-resistant Staphylococcus aureus (labeled MRSA USF652-659) are obtained from a clinical testing laboratory at Lakeland Regional Medical Center, Lakeland, Fla.
(§6) Those compounds were tested for bioactivity using the Kirby-Bauer test on agar plates.
(§7) Biological activity is enhanced against β-lactamase producing strains of methicillin-resistant Staphylococcus aureus (MRSA). With the lactam shown in FIG. 11A serving as a lead structure, a series of other C-4 substituted derivatives (FIGS. 11B-11I) were investigated herein. Table 5 lists microbiological data for β-lactams from Kirby-Bauer Disc Diffusion Test Results (with each lactam identified by Figure number).
as §2

[3] = tested on: MRSA USF653; experiment: Kirby-Bauer agar disk diffusion; parameters: Kirby-Bauer Disc Diffusion Test Results: unit not given here; conditions: for The Zone of Inhibition: Table 6; for Kirby-Bauer Disc Diffusion Test Results: Table 5, beta-lactamase producing strain
Procedure: as §3, §4, §1, §5, §6, §7, §2

[4] = tested on: MRSA USF654; experiment: Kirby-Bauer agar disk diffusion; parameters: Kirby-Bauer Disc Diffusion Test Results: unit not given here; conditions: for The Zone of Inhibition: Table 6; for Kirby-Bauer Disc Diffusion Test Results: Table 5, beta-lactamase producing strain
Procedure: as §3, §4, §1, §5, §6, §7, §2

[5] = tested on: MRSA USF655; experiment: Kirby-Bauer agar disk diffusion; parameters: Kirby-Bauer Disc Diffusion Test Results: unit not given here; conditions: for The Zone of Inhibition: Table 6; for Kirby-Bauer Disc Diffusion Test Results: Table 5
Procedure: as §3, §4, §1, §5, §6, §7, §2

[6] = tested on: MRSA USF656; experiment: Kirby-Bauer agar disk diffusion; parameters: Kirby-Bauer Disc Diffusion Test Results: unit not given here; conditions: for The Zone of Inhibition: Table 6; for Kirby-Bauer Disc Diffusion Test Results: Table 5, beta-lactamase producing strain
Procedure: as §3, §4, §1, §5, §6, §7, §2

[7] = tested on: MRSA USF657; experiment: Kirby-Bauer agar disk diffusion; parameters: Kirby-Bauer Disc Diffusion Test Results: unit not given here; conditions: for The Zone of Inhibition: Table 6; for Kirby-Bauer Disc Diffusion Test Results: Table 5, beta-lactamase producing strain
Procedure: as §3, §4, §1, §5, §6, §7, §2

[8] = tested on: MRSA USF658; experiment: Kirby-Bauer agar disk diffusion; parameters: Kirby-Bauer Disc Diffusion Test Results: unit not given here; conditions: for The Zone of Inhibition: Table 6; for Kirby-Bauer Disc Diffusion Test Results: Table 5, beta-lactamase producing strain
Procedure: as §3, §4, §1, §5, §6, §7, §2

[9] = tested on: MRSA USF659; experiment: Kirby-Bauer agar disk diffusion; parameters: Kirby-Bauer Disc Diffusion Test Results: unit not given here; conditions: for The Zone of Inhibition: Table 6; for Kirby-Bauer Disc Diffusion Test Results: Table 5, beta-lactamase producing strain
Procedure: as §3, §4, §1, §5, §6, §7, §2

[10] = tested on: Staph aureus 525; experiment: Kirby-Bauer agar disk diffusion; conditions: for Kirby-Bauer Disc Diffusion Test Results: Table 5
[11] = Example 6, MRSA strains of Table 6

Row | SMILES | antibacterial activity, in words ([1]; Example 3 SAR) | Kirby-Bauer Disc Diffusion Test Results [2] | Kirby-Bauer Disc Diffusion Test Results [3] | Kirby-Bauer Disc Diffusion Test Results [4] | Kirby-Bauer Disc Diffusion Test Results [5] | Kirby-Bauer Disc Diffusion Test Results [6] | Kirby-Bauer Disc Diffusion Test Results [7] | Kirby-Bauer Disc Diffusion Test Results [8] | Kirby-Bauer Disc Diffusion Test Results [9] | Kirby-Bauer Disc Diffusion Test Results [10] | other results
1 | COC1C(=O)N(SC)C1C(C#Cc1ccccc1)OC(C)=O (mixture of isomers) [FIG. 6I] | devoid of activity |  |  |  |  |  |  |  |  |  | 
2 | COC(=O)c1ccc(C2C(OC)C(=O)N2SC)cc1 (racemic) [4a] |  |  |  |  |  |  |  |  |  |  | The Zone of Inhibition ([2]; 20 μg disk loading): 12 mm; The Zone of Inhibition ([3]; 20 μg disk loading): 14 mm; The Zone of Inhibition ([4]; 20 μg disk loading): 8 mm; The Zone of Inhibition ([5]; 20 μg disk loading): 14 mm; The Zone of Inhibition ([6]; 20 μg disk loading): 11 mm; The Zone of Inhibition ([7]; 20 μg disk loading): 12 mm; The Zone of Inhibition ([8]; 20 μg disk loading): 9 mm; The Zone of Inhibition ([9]; 20 μg disk loading): 13 mm; antibacterial activity, in words [1, 11]: about similar activity
3 | CCOC(=O)c1ccc(C2C(OC)C(=O)N2SC)cc1 (racemic) [4b] |  |  |  |  |  |  |  |  |  |  | The Zone of Inhibition ([2]; 20 μg disk loading): 17 mm; The Zone of Inhibition ([3]; 20 μg disk loading): 14 mm; The Zone of Inhibition ([4]; 20 μg disk loading): 9 mm; The Zone of Inhibition ([5]; 20 μg disk loading): 12 mm; The Zone of Inhibition ([6]; 20 μg disk loading): 11 mm; The Zone of Inhibition ([7]; 20 μg disk loading): 14 mm; The Zone of Inhibition ([8]; 20 μg disk loading): 11 mm; The Zone of Inhibition ([9]; 20 μg disk loading): 13 mm; antibacterial activity, in words [1, 11]: about similar activity
4 | CCCCCOC(=O)c1ccc(C2C(OC)C(=O)N2SC)cc1 (racemic) [4c] |  |  |  |  |  |  |  |  |  |  | The Zone of Inhibition ([2]; 20 μg disk loading): 17 mm; The Zone of Inhibition ([3]; 20 μg disk loading): 13 mm; The Zone of Inhibition ([4]; 20 μg disk loading): 11 mm; The Zone of Inhibition ([5]; 20 μg disk loading): 13 mm; The Zone of Inhibition ([6]; 20 μg disk loading): 14 mm; The Zone of Inhibition ([7]; 20 μg disk loading): 14 mm; The Zone of Inhibition ([8]; 20 μg disk loading): 12 mm; The Zone of Inhibition ([9]; 20 μg disk loading): 12 mm; antibacterial activity, in words [1, 11]: about similar activity
5 | CCCCCCCCCCOC(=O)c1ccc(C2C(OC)C(=O)N2SC)cc1 (racemic) [4e] |  |  |  |  |  |  |  |  |  |  | The Zone of Inhibition ([2]; 20 μg disk loading): 0 mm; The Zone of Inhibition ([3]; 20 μg disk loading): 0 mm; The Zone of Inhibition ([4]; 20 μg disk loading): 0 mm; The Zone of Inhibition ([5]; 20 μg disk loading): 0 mm; The Zone of Inhibition ([6]; 20 μg disk loading): 0 mm; The Zone of Inhibition ([7]; 20 μg disk loading): 0 mm; The Zone of Inhibition ([8]; 20 μg disk loading): 0 mm; The Zone of Inhibition ([9]; 20 μg disk loading): 0 mm; antibacterial activity, in words [1, 11]: no activity
6 | COC1C(=O)N(SC)C1C#Cc1ccccc1 (racemic) [FIG. 6A] | inhibits the in vitro growth |  |  |  |  |  |  |  |  |  | 
7 | COC1C(=O)N(SC)C1c1ccccc1 (racemic) [FIG. 6J] | highly active |  |  |  |  |  |  |  |  |  | 
8 | COC1C(=O)N(SC)C1c1ccccc1Cl (racemic) [FIG. 7A] | most active analogue |  |  |  |  |  |  |  |  |  | 
9 | COC(=O)c1ccc(C2C(OC)C(=O)N2SC)cc1 (racemic) [FIG. 7J] | showing antibacterial activity |  |  |  |  |  |  |  |  |  | 
10 | CCCCCOC(=O)c1ccc(C2C(OC)C(=O)N2SC)cc1 (racemic) [FIG. 8C] | activity is maintained |  |  |  |  |  |  |  |  |  | 
11 | CCCCCCCOC(=O)c1ccc(C2C(OC)C(=O)N2SC)cc1 (racemic) [FIG. 8D] | about half the activity of the pentyl analogues |  |  |  |  |  |  |  |  |  | 
12 | CCCCCCCCCCOC(=O)c1ccc(C2C(OC)C(=O)N2SC)cc1 (racemic) [FIG. 8E] | totally devoid of activity |  |  |  |  |  |  |  |  |  | 
13 | COC1C(=O)N(SC)C1C#Cc1ccccc1 (racemic) [FIG. 11A] |  | 29 | 29 | 27 | 27 | 30 | 28 | 27 | 24 | 27 | 
14 | COC1C(=O)N(SC)C1c1ccccc1 (racemic) [FIG. 11B] |  | 30 | 30 | 26 | 26 | 28 | 28 | 27 | 24 | 25 | 
15 | COC1C(=O)N(SC)C1c1cccc([N+](=O)[O-])c1 (racemic) [FIG. 11C] |  | 17 | 22 | 16 | 14 | 18 | 18 | 17 | 11 | 15 | 
16 | COC1C(=O)N(SC)C1c1ccc(C#N)cc1 (racemic) [FIG. 11D] |  | 14 | 16 | 0 | 12 | 13 | 10 | 12 | 12 | 14 | 
17 | COC1C(=O)N(SC)C1c1cccs1 (racemic) [FIG. 11E] |  | 28 | 28 | 27 | 29 | 28 | 26 | 26 | 24 | 27 | 
18 | COC1C(=O)N(SC)C1c1cccc(Cl)c1 (racemic) [FIG. 11G] |  | 26 | 28 | 21 | 23 | 26 | 25 | 22 | 15 | 24 | 
19 | COC1C(=O)N(SC)C1c1ccc(Cl)cc1 (racemic) [FIG. 11H] |  | 24 | 28 | 23 | 23 | 22 | 22 | 20 | 18 | 24 | 
20 | COC1C(=O)N(SC)C1c1c(Cl)cccc1Cl (racemic) [FIG. 11I] |  | 24 | 26 | 21 | 20 | 22 | 20 | 20 | 17 | 24 | 
21 | COC1C(=O)N(SC)C1c1ccccc1Cl (racemic) [Methyl-thio] |  |  |  |  |  |  |  |  |  |  | Zones of Inhibition ([2]; Table 4, 20 μg disk loading): 30 mm; Zones of Inhibition ([3]; Table 4, 20 μg disk loading): 29 mm; Zones of Inhibition ([4]; Table 4, 20 μg disk loading): 26 mm; Zones of Inhibition ([5]; Table 4, 20 μg disk loading): 26 mm; Zones of Inhibition ([6]; Table 4, 20 μg disk loading): 28 mm; Zones of Inhibition ([7]; Table 4, 20 μg disk loading): 27 mm; Zones of Inhibition ([8]; Table 4, 20 μg disk loading): 26 mm; Zones of Inhibition ([9]; Table 4, 20 μg disk loading): 23 mm; Zones of Inhibition ([10]; Table 4, 20 μg disk loading): 26 mm
